Experimental data as given in US11369697B2, “Liposome nanoparticles for tumor magnetic resonance imaging” (UNITED KINGDOM RESEARCH AND INNOVATION, priority 2009, dated 2022).

Experiment: T1 relaxation of Gd lipids in aqueous solution (MRI efficacy)
Type: physicochemical
Conditions: 0.5 mM, 4.7 T
Procedure: In order to establish the relaxation properties of Gd.DOTA.DSA, MRI studies of the lipid in aqueous solution were performed and T1 values and relaxivity parameters generated in milliseconds. […] A standard T1 saturation recovery method (spin echo sequence) was used to determine T1 values (according to Eq. 1), where x is TR (time to repeat), and Si is the measured signal for a given TR. Si=S0(1−e^(−x/T^1^))
MRI Analysis of Gd.DOTA.DSA For T1 analysis, Gd.DOTA.DSA 4, Gd.DTPA.BSA, and controls of the metal free compound, and Magnevist (Schering A G, Germany) were added to water to give a final concentration of 0.5 mM. The solutions (200 μL) were placed in eppendorf tubes and T1 relaxation values measured on a 4.7 T Varian MR scanner at ambient temperature. For relaxivity measurements; gadolinium liposome formulations were prepared in order to obtain five different gadolinium concentrations between […] in 200 μL of distilled water and the molar relaxivity r1 (mM^−1 s^−1) determined. T1 values were obtained using saturation recovery experiments performed with a standard spin-echo sequence and a 2 mm single slice acquisition (TR=50, 100, 200, 300, 500, 700, 1200, 3000, 5000, 7000 ms, TE=15 ms), number of signal averages; 2, FOV; 70×70 mm^2, collected into a matrix of 256×128.

## Gadolinium (III) 2-{4,7-Bis-Carboxymethyl-10-[(N, N-Distearylamidomethyl-N′-Amido-Methyl]-1,4,7,10-Tetra-Azacyclododec-1-yl}-Acetic Acid [Gd.DOTA.DSA]
  T1 relaxation compared to Gd.DTPA.BSA lipid: comparable, if slightly better
Lipid in aqueous solution, clinically relevant dose
  efficacy compared to Magnevist and Gd.DTPA.BSA (T1 values): compare favourably
